Measured values as given in ChEMBL document CHEMBL4665834 (J Med Chem, 2020).
Values after ≈ are worked out from the molar mass of the structure shown.

Columns and labels:
[1] = Solubility of compound in 0.1 M HCl using crystalline form of sample; format: physicochemical
Cytochrome P450 2D6 = Cytochrome P450 2D6 (Homo sapiens, UniProt P10635); test: Inhibition of CYP2D6 in human liver microsomes using dextromethorphan as substrate incubated for 15 mins in presence of NADPH generating system by LC-MS/MS analysis; format: ADME
Sequence of Cytochrome P450 2D6 (P10635 whole entry): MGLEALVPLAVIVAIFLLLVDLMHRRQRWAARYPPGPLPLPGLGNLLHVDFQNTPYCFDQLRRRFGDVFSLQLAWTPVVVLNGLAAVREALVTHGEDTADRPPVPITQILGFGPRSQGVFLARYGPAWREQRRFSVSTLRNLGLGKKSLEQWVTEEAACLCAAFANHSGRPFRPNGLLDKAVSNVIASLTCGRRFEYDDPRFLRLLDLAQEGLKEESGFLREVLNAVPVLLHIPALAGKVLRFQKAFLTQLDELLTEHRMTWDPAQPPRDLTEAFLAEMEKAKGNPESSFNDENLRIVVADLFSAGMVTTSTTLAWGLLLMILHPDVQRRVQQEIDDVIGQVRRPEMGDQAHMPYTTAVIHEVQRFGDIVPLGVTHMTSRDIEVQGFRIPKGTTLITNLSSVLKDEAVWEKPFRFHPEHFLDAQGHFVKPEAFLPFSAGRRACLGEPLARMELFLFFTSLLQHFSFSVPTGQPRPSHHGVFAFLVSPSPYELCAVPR

Cytochrome P450 2C9 = Cytochrome P450 2C9 (Homo sapiens, UniProt P11712); test: Inhibition of CYP2C9 in human liver microsomes using diclofenac as substrate incubated for 15 mins in presence of NADPH generating system by LC-MS/MS analysis; format: ADME
Sequence of Cytochrome P450 2C9 (P11712 whole entry): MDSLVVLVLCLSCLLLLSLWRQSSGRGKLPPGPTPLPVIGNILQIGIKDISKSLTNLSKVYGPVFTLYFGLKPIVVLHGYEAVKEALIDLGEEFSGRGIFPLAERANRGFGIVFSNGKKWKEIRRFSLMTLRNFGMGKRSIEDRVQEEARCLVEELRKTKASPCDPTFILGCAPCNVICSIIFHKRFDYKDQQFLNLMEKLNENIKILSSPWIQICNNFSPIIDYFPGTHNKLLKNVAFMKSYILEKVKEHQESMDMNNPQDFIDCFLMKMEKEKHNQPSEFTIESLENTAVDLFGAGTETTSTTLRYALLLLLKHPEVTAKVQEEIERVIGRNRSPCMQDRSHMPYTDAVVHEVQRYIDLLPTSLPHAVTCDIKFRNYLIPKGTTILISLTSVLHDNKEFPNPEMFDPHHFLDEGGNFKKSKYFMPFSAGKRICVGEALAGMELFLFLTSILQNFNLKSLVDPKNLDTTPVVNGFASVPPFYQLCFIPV

Cytochrome P450 2C8 = Cytochrome P450 2C8 (Homo sapiens, UniProt P10632); test: Inhibition of CYP2C8 in human liver microsomes using amodiaquine as substrate incubated for 15 mins in presence of NADPH generating system by LC-MS/MS analysis; format: ADME
Cytochrome P450 1A2 = Cytochrome P450 1A2 (Homo sapiens, UniProt P05177); test: Inhibition of CYP1A2 in human liver microsomes using phenacetin as substrate incubated for 15 mins in presence of NADPH generating system by LC-MS/MS analysis; format: ADME
Sequence of Cytochrome P450 1A2 (P05177 whole entry): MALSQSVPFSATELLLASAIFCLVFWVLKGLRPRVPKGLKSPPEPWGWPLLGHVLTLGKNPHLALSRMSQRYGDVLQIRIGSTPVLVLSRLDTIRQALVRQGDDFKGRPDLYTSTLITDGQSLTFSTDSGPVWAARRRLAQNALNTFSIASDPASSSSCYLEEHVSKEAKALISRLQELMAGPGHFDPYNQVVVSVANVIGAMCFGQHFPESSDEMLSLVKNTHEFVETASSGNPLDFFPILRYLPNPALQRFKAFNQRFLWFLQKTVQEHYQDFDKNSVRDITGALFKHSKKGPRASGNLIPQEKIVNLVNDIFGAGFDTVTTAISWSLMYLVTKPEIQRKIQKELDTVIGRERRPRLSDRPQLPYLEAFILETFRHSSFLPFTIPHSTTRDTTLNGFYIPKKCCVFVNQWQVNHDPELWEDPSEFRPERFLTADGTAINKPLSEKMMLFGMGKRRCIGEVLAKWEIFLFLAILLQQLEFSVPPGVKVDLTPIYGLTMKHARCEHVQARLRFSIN

[2] = Oral bioavailability in Wistar rat at 1 to 3 mg/kg administered via gavage using EtOH/PEG400/H2O 10/40/50 formulation by LC-MS/MS analysis; format: ADME, organism-based; details: in vivo, dose 1-3 mg/kg
[3] = Apparent permeability in human Caco-2 cells measured after 2 hrs by HPLC analysis; format: ADME, cell-based
Prostacyclin receptor = Prostacyclin receptor (Homo sapiens, UniProt P43119); test: Displacement of [3H]PGD2 from full-length recombinant human IP receptor expressed in HEK293 cell membranes measured after 60 mins by scintillation counting method
Sequence of Prostacyclin receptor (P43119 whole entry, the tested form may be a part): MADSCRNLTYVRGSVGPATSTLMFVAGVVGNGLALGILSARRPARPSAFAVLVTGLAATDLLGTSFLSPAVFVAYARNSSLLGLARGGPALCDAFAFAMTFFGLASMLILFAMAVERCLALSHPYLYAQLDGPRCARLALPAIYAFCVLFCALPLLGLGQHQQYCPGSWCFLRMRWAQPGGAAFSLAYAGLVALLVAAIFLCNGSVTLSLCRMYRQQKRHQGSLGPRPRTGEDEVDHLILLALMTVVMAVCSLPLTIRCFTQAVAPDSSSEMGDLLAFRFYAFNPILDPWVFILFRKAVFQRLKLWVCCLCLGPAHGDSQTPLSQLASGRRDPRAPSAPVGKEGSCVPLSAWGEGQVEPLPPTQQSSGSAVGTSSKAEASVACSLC

[4] = Clearance in Wistar rat at 0.3 to 1 mg/kg, iv administered as bolus dose or 15 mins infusion by LC-MS/MS analysis; format: ADME, organism-based; details: Wistar, in vivo, dose 0.3-1 mg/kg
Cytochrome P450 3A4 = Cytochrome P450 3A4 (Homo sapiens, UniProt P08684); test: Inhibition of CYP3A4 in human liver microsomes using midazolam as substrate incubated for 10 mins in presence of NADPH generating system by LC-MS/MS analysis
[5] = Protein binding in pooled human plasma assessed as unbound fraction incubated for 6 hrs by LC-MS/MS analysis based equilibrium dialysis method; format: ADME, cell-free
[6] = molecular target: Prostaglandin D2 receptor (Homo sapiens, UniProt Q13258); test: Displacement of [3H]PGD2 from full-length recombinant human DP1 receptor expressed in Chem-1 cell membranes measured after 120 mins by scintillation counting method
Sequence of Prostaglandin D2 receptor (Q13258 whole entry): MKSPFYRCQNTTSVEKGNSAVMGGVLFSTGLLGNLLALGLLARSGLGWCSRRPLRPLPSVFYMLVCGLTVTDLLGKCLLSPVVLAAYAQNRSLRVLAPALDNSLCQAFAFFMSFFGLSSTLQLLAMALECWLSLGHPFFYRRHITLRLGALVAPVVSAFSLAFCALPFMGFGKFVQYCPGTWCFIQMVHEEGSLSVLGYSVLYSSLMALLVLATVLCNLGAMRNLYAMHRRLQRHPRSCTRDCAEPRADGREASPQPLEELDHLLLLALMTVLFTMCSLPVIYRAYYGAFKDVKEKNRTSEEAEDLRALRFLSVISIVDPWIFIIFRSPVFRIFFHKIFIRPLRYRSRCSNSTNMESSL

[7] = molecular target: Prostaglandin E2 receptor EP3 subtype (Homo sapiens, UniProt P43115); test: Displacement of [3H]prostaglandin E2 from full-length recombinant human EP3 receptor expressed in HEK293 cell membranes measured after 120 mins by scintillation counting method
Sequence of Prostaglandin E2 receptor EP3 subtype (P43115 whole entry): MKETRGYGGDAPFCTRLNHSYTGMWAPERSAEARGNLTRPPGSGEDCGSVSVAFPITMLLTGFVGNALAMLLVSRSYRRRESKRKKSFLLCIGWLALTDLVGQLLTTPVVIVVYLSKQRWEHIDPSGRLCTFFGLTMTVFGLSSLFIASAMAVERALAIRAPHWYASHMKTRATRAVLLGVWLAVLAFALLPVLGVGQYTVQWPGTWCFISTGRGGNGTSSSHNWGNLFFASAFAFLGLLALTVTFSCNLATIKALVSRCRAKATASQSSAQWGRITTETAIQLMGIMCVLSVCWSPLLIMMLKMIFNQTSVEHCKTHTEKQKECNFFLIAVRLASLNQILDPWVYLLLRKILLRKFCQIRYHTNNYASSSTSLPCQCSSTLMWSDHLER

[8] = molecular target: Prostaglandin E2 receptor EP2 subtype (Homo sapiens, UniProt P43116); test: Displacement of [3H]prostaglandin E2 from full-length recombinant human EP2 receptor expressed in HEK293 cell membranes measured after 120 mins by scintillation counting method
Sequence of Prostaglandin E2 receptor EP2 subtype (P43116 whole entry): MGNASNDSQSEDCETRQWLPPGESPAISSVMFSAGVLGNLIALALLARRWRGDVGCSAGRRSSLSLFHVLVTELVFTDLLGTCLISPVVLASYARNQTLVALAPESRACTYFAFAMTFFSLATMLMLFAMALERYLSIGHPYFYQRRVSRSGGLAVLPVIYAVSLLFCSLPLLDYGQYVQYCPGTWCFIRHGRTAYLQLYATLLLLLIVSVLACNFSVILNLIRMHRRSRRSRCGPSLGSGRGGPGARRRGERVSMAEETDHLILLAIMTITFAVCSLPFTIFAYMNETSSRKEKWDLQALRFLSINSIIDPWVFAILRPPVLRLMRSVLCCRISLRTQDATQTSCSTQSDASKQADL

[9] = molecular target: Prostaglandin E2 receptor EP1 subtype (Homo sapiens, UniProt P34995); test: Displacement of [3H]prostaglandin E2 from full-length recombinant human EP1 receptor expressed in HEK293 cell membranes measured after 60 mins by scintillation counting method
Sequence of Prostaglandin E2 receptor EP1 subtype (P34995 whole entry): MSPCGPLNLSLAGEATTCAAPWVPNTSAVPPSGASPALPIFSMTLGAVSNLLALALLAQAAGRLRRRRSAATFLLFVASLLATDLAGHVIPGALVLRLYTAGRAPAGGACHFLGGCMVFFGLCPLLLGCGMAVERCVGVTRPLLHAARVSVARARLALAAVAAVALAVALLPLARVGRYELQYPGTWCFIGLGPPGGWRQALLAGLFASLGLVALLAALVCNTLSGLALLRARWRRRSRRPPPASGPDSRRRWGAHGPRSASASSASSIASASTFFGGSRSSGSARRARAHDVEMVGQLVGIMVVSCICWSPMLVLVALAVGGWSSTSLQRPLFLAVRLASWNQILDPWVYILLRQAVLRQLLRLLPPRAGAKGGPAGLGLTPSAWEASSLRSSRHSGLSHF

[10] = Lipophilicity, log D of compound at pH 7.5 by HPLC analysis; details: buffer
[11] = molecular target: Prostaglandin F2-alpha receptor (Rattus norvegicus, UniProt P43118); test: Antagonist activity at FPR in Wistar rat assessed as inhibition of PGF2alpha-induced uterus contraction; format: tissue-based
Sequence of Prostaglandin F2-alpha receptor (Rattus norvegicus, UniProt P43118) (P43118 whole entry): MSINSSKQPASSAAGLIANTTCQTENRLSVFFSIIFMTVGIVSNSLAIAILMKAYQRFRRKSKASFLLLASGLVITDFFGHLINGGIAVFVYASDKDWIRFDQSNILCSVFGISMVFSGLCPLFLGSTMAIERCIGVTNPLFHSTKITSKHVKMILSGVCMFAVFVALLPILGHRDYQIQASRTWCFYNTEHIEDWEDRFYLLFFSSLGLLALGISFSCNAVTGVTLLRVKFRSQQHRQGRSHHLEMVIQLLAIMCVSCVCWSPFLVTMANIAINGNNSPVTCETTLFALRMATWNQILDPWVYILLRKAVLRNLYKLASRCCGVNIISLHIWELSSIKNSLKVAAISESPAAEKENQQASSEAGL

[12] = molecular target: Prostaglandin F2-alpha receptor (Mus musculus, UniProt P43117); test: Antagonist activity at FPR in mouse NIH3T3 cells assessed as inhibition of PGF2alpha-induced cytokine induced neutrophil attracting chemokine production measured after 24 hrs by Bio-Rad assay; format: cell-based
Sequence of Prostaglandin F2-alpha receptor (Mus musculus, UniProt P43117) (P43117 whole entry): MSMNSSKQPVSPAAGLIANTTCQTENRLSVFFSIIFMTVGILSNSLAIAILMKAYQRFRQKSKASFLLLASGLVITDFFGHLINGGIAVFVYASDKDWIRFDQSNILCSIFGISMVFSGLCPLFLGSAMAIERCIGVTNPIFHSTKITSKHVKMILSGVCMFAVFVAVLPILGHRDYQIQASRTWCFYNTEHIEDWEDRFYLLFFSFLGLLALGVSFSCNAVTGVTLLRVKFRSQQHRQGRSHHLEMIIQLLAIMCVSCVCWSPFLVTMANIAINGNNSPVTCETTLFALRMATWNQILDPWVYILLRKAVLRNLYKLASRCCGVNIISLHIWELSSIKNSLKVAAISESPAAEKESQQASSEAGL

[13] = molecular target: Prostaglandin D2 receptor 2 (Homo sapiens, UniProt Q9Y5Y4); test: Displacement of [3H]PGD2 from full-length recombinant human CRTH2 receptor expressed in CHOK1 cell membranes measured after 120 mins by scintillation counting method; set-up: species or system CHO-K1
Sequence of Prostaglandin D2 receptor 2 (Q9Y5Y4 whole entry): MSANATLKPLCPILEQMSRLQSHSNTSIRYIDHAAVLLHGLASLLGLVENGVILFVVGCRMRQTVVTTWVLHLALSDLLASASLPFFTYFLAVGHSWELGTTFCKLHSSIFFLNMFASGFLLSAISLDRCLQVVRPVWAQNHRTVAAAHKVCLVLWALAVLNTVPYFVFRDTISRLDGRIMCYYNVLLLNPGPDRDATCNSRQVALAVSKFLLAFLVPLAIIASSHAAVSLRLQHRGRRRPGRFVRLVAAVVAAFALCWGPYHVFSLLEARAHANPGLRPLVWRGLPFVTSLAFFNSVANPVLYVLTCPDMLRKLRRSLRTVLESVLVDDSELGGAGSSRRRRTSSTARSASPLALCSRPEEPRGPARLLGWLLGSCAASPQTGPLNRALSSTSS

Thromboxane A2 receptor = Thromboxane A2 receptor (Homo sapiens, UniProt P21731); test: Antagonist activity at recombinant full-length human TP receptor expressed in HEK293 cells assessed as inhibition of U-44069-induced response measured after 30 mins by TR-FRET assay; format: cell-based
Sequence of Thromboxane A2 receptor (P21731 whole entry): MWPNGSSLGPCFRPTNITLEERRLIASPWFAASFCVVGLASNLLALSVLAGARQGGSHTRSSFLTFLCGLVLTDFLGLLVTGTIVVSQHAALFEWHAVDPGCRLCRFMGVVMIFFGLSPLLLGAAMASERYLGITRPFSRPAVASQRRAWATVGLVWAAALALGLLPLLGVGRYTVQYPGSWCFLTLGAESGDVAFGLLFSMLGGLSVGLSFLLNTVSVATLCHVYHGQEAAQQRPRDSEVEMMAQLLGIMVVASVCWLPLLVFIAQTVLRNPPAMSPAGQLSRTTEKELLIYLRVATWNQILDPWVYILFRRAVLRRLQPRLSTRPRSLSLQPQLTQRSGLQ

[14] = Protein binding in pooled dog plasma assessed as unbound fraction incubated for 6 hrs by LC-MS/MS analysis based equilibrium dialysis method; format: ADME, cell-free, Canis lupus familiaris
[15] = Protein binding in pooled rat plasma assessed as unbound fraction incubated for 6 hrs by LC-MS/MS analysis based equilibrium dialysis method; format: ADME, cell-free
[16] = Drug metabolism in human hepatocytes assessed as formation of hydroxylated and ring-opened pyrrolidine derivative at 1 uM measured after 1 to 4 hrs by LC-MS/MS analysis; format: ADME, cell-based, Hepatocyte; details: time 1-4 hrs
[17] = Drug metabolism in rat hepatocytes assessed as oxidation at the pyrrolidine ring at 1 uM measured after 1 to 4 hrs by LC-MS/MS analysis; format: ADME, cell-based, Hepatocyte; details: time 1-4 hrs
[18] = Drug metabolism in rat hepatocytes assessed as formation of hydroxylated and ring-opened pyrrolidine derivative at 1 uM measured after 1 to 4 hrs by LC-MS/MS analysis; format: ADME, cell-based, Hepatocyte; details: time 1-4 hrs
[19] = Drug metabolism in dog hepatocytes assessed as glucuronidation at 1 uM measured after 1 to 4 hrs by LC-MS/MS analysis; format: ADME, cell-based, Canis lupus familiaris, Hepatocyte; details: time 1-4 hrs
[20] = Clearance in Balb/c mouse at 1 mg/kg, iv administered as bolus dose or 3 mg/kg, po administered via gavage by LC-MS/MS analysis; format: ADME, organism-based; details: in vivo
[21] = Terminal half life in Balb/c mouse at 1 mg/kg, iv administered as bolus dose by LC-MS/MS analysis; format: ADME, organism-based; details: in vivo, read-out: beta t1/2 (converted)
[22] = Oral bioavailability in Balb/c mouse at 3 mg/kg administered via gavage by LC-MS/MS analysis; format: ADME, organism-based; details: in vivo
[23] = Volume of distribution at steady state in Wistar rat at 1 mg/kg, iv administered as bolus dose or 3 mg/kg, po administered via gavage by LC-MS/MS analysis; format: ADME, organism-based; details: in vivo, read-out: Vdss
[24] = Terminal half life in Wistar rat at 1 mg/kg, iv administered as bolus dose by LC-MS/MS analysis; format: ADME, organism-based; details: in vivo, read-out: beta t1/2 (converted)
[25] = Oral bioavailability in Wistar rat at 3 mg/kg administered via gavage by LC-MS/MS analysis; format: ADME, organism-based; details: in vivo
[26] = Clearance in Beagle dog at 0.5 mg/kg, iv administered as 15 mins infusion or 1 mg/kg, po administered via gavage by LC-MS/MS analysis; format: ADME, organism-based, Canis lupus familiaris; details: in vivo
[27] = Volume of distribution at steady state in Beagle dog at 0.5 mg/kg, iv administered as 15 mins infusion or 1 mg/kg, po administered via gavage by LC-MS/MS analysis; format: ADME, organism-based, Canis lupus familiaris; details: in vivo, read-out: Vdss
[28] = Terminal half life in Beagle dog at 0.5 mg/kg, iv administered as 15 mins infusion by LC-MS/MS analysis; format: ADME, organism-based, Canis lupus familiaris; details: in vivo, read-out: beta t1/2 (converted)
[29] = Oral bioavailability in Beagle dog at 1 mg/kg administered via gavage by LC-MS/MS analysis; format: ADME, organism-based, Canis lupus familiaris; details: in vivo

Question: With Cc1c(N2CCCC2)nc2ccc(Br)cc2c1C(=O)NC[C@H](CCC(=O)O)c1ccccc1Cl [BAY-6672] as the molecule, how does the solubility [1] read?
Answer: 440 µg/mL (≈ 808 µM)

Question: What about the IC50 (Cytochrome P450 2D6) of the same molecule?
Answer: > 20 µM

Question: And the IC50 (Cytochrome P450 2C9)?
Answer: > 20 µM

Question: What about the IC50 (Cytochrome P450 2C8) of the same molecule?
Answer: > 20 µM

Question: And the IC50 (Cytochrome P450 1A2)?
Answer: > 20 µM

Question: And the bioavailability [2]?
Answer: 91%

Question: What about the Papp at 2 h [3] of the same molecule?
Answer: 26.7 ×10⁻⁶ cm/s

Question: What about the IC50 (Prostacyclin receptor) of the same molecule?
Answer: > 10 µM

Question: And the clearance [4]?
Answer: 11.7 mL/min/kg

Question: And the IC50 (Cytochrome P450 3A4)?
Answer: > 20 µM

Question: And the fraction unbound at 6 h [5]?
Answer: < 0.01

Question: What about the IC50 [6] of the same molecule?
Answer: > 10 µM

Question: What about the IC50 [7] of the same molecule?
Answer: > 10 µM

Question: What about the IC50 [8] of the same molecule?
Answer: > 10 µM

Question: What about the IC50 [9] of the same molecule?
Answer: > 10 µM

Question: What about the logD [10] of the same molecule?
Answer: 2.3

Question: What about the IC50 [11] of the same molecule?
Answer: 0.052 µM

Question: What about the IC50 [12] of the same molecule?
Answer: 0.012 µM

Question: And the IC50 [13]?
Answer: > 10 µM

Question: What about the IC50 (Thromboxane A2 receptor) of the same molecule?
Answer: 2.2 µM

Question: And the fraction unbound at 6 h [14]?
Answer: < 0.01

Question: What about the fraction unbound at 6 h [15] of the same molecule?
Answer: < 0.01

Question: And the Drug metabolism [16]?
Answer: Metabolite_Detected

Question: And the Drug metabolism [17]?
Answer: Metabolite_Detected

Question: What about the Drug metabolism [18] of the same molecule?
Answer: Metabolite_Detected

Question: And the Drug metabolism [19]?
Answer: Metabolite_Detected

Question: What about the clearance [20] of the same molecule?
Answer: 18.3 mL/min/kg

Question: What about the half-life [21] of the same molecule?
Answer: 3.4 h

Question: And the bioavailability [22]?
Answer: 94%

Question: What about the Vd [23] of the same molecule?
Answer: 2.1 L/kg

Question: And the half-life [24]?
Answer: 3.8 h

Question: And the bioavailability [25]?
Answer: 91%

Question: What about the clearance [26] of the same molecule?
Answer: 13.3 mL/min/kg

Question: And the Vd [27]?
Answer: 1.8 L/kg

Question: What about the half-life [28] of the same molecule?
Answer: 14 h

Question: And the bioavailability [29]?
Answer: 45%
